Consider 23 compounds from US20080234233A1, “MEDICAMENT FOR TREATMENT OF NEURODEGENERATIVE DISEASES” (INSTITUTE OF MEDICINAL MOLECULAR DESIGN INC., priority 2002, published 2008).

SMILES strings stand for the structures.

The test system of the first experiment is NF-κ B activation. Kind of experiment: Inhibitory activity of NF-κB activation, luciferase reporter assay under TNF-α stimulation in HepG2. Format: cell-based, human. Conditions: Drug concentration at 1 μg/mL; HepG2, TNF-α 40 ng/ml, 4 hours. The method, then: Measurement of Inhibitory Activity of NF-κB activation
Using a transfection reagent (Effectene; QIAGEN), the human hepatoma cell strain HepG2 was transfected with a plasmid (pNF κ B-Luc Reporter Plasmid; […]) integrated with an oligonucleotide having five tandem copies of NF-κ B binding sequences([…]) on a upstream region of firefly luciferase gene(Luc) according to the QIAGEN's protocol, and the cells were incubated for 6 to 24 hours. After addition of TNF-α (40 ng/ml) in the presence or absence of a test compound, the cells were incubated for 4 hours, and intracellular luciferase activity was measured by using PicaGene LT (TOYO INK MFG Co., Ltd.) and a chemical luminescence measurement apparatus ([…]luor Plus; TECAN). The inhibitory ratio was measured as a ratio relative to the value of the luciferase activity in the absence of the test compound.
Consider `COc1ccc(C(C)(C)C)cc1NC(=O)c1cc(C)ccc1O` [compound 149], for which the “Inhibitory rate against NF-κB activation (%)” value (from here on “Inhibitory rate … (%)”) was 37.4%. Turning to `Cc1ccc(C(C)C)cc1NC(=O)c1cc(Cl)ccc1O` [compound 151], the “Inhibitory rate … (%)” value is 85.8%. Regarding `CCOc1ccc(OCC)c(NC(=O)c2cc(Cl)ccc2O)c1` [compound 152], the “Inhibitory rate … (%)” value amounted to 35.1%. Same read-out and setting: under `Cc1ccc(C)c(NC(=O)c2cc(Cl)ccc2O)c1` [compound 153] stands 88.3%; under `N#Cc1ccc(Cl)cc1NC(=O)c1cc(Cl)ccc1O` [compound 154], 83.0%. `CCN(CC)S(=O)(=O)c1ccc(OC)c(NC(=O)c2cc(Cl)ccc2O)c1` [compound 155]: the “Inhibitory rate … (%)” value was 11.2%. Regarding `O=C(Nc1cc([N+](=O)[O-])ccc1Cl)c1cc(Cl)ccc1O` [compound 156], the “Inhibitory rate … (%)” value turned out to be 93.8%.

As to `COc1ccc(C(=O)Nc2ccccc2)cc1NC(=O)c1cc(Cl)ccc1O` [compound 157], the “Inhibitory rate … (%)” value worked out at 52.6%.

For the compound `COc1ccc(OC)c(NC(=O)c2cc(Cl)ccc2O)c1` [compound 158], the “Inhibitory rate … (%)” value was found to be 52.4%. Regarding `COc1ccc(C)c(NC(=O)c2cc(Cl)ccc2O)c1` [compound 160], the “Inhibitory rate … (%)” value is 69.6%. Same read-out and setting: under `CCCCOc1ccc(OCCCC)c(NC(=O)c2cc(Cl)ccc2O)c1` [compound 161] stands 94.2%; under `CC(C)CCOc1ccc(OCCC(C)C)c(NC(=O)c2cc(Cl)ccc2O)c1` [compound 162], 93.8%. With `CCC(C)(C)c1ccc(Oc2ccccc2)c(NC(=O)c2cc(Cl)ccc2O)c1` [compound 164], the “Inhibitory rate … (%)” value was 97.6%. On the same count and under the same terms, under `CCCCCCOc1ccc(S(C)(=O)=O)cc1NC(=O)c1cc(Cl)ccc1O` [compound 165] stands 95.9%; under `Cc1ccc(C(=O)C(C)(C)C)cc1NC(=O)c1cc(Cl)ccc1O` [compound 166], 94.1%. On to `COc1ccc(-n2cccc2)c(NC(=O)c2cc(Cl)ccc2O)c1` [compound 167], for which the “Inhibitory rate … (%)” value is on record as 76.4%. Same read-out and setting: under `Cc1ccc(S(=O)(=O)c2ccc(Cl)cc2NC(=O)c2cc(Cl)ccc2O)cc1` [compound 168] stands 46.7%; under `Cc1ccc(S(=O)(=O)c2ccc(Cl)c(NC(=O)c3cc(Cl)ccc3O)c2)cc1` [compound 169], 31.6%.

Still in this experiment, the particulars now being: Drug concentration at 10 μg/mL; HepG2, TNF-α 40 ng/ml, 4 hours.
Consider `O=C(Nc1cc(Cl)cc(Cl)c1)c1ccc(Cl)cc1O` [compound 129], for which the “Inhibitory rate … (%)” value is 71.8%. The same measure, in the same setting: under `O=C(Nc1cc(Cl)cc(Cl)c1)c1cc([N+](=O)[O-])ccc1O` [compound 130] stands 70.6%. Regarding `COc1ccc(C(C)(C)C)cc1NC(=O)c1cc(C)ccc1O` [compound 149], the “Inhibitory rate … (%)” value worked out at 87.1%. Still for that read-out and setting: under `Cc1ccc(C(C)C)cc1NC(=O)c1cc(Cl)ccc1O` [compound 151] stands 98.2%; under `CCOc1ccc(OCC)c(NC(=O)c2cc(Cl)ccc2O)c1` [compound 152], 95.3%.

As for `Cc1ccc(C)c(NC(=O)c2cc(Cl)ccc2O)c1` [compound 153], the “Inhibitory rate … (%)” value is 97.1%.

As for `N#Cc1ccc(Cl)cc1NC(=O)c1cc(Cl)ccc1O` [compound 154], the “Inhibitory rate … (%)” value was 93.3%. For `CCN(CC)S(=O)(=O)c1ccc(OC)c(NC(=O)c2cc(Cl)ccc2O)c1` [compound 155], the “Inhibitory rate … (%)” value was 90.2%.

Regarding `O=C(Nc1cc([N+](=O)[O-])ccc1Cl)c1cc(Cl)ccc1O` [compound 156], the “Inhibitory rate … (%)” value was determined as 95.7%. The same measure, in the same setting: under `COc1ccc(C(=O)Nc2ccccc2)cc1NC(=O)c1cc(Cl)ccc1O` [compound 157] stands 98.8%.

With `COc1ccc(OC)c(NC(=O)c2cc(Cl)ccc2O)c1` [compound 158], the “Inhibitory rate … (%)” value came out at 96.8%. The same measure, in the same setting: under `COc1ccc(C)c(NC(=O)c2cc(Cl)ccc2O)c1` [compound 160] stands 96.5%; under `CCCCOc1ccc(OCCCC)c(NC(=O)c2cc(Cl)ccc2O)c1` [compound 161], 97.6%; under `CC(C)CCOc1ccc(OCCC(C)C)c(NC(=O)c2cc(Cl)ccc2O)c1` [compound 162], 97.9%. Still for that read-out and setting: under `CCC(C)(C)c1ccc(Oc2ccccc2)c(NC(=O)c2cc(Cl)ccc2O)c1` [compound 164] stands 98.3%.

Regarding `CCCCCCOc1ccc(S(C)(=O)=O)cc1NC(=O)c1cc(Cl)ccc1O` [compound 165], the “Inhibitory rate … (%)” value worked out at 99.4%.

As for `Cc1ccc(C(=O)C(C)(C)C)cc1NC(=O)c1cc(Cl)ccc1O` [compound 166], the “Inhibitory rate … (%)” value worked out at 96.4%. Regarding `COc1ccc(-n2cccc2)c(NC(=O)c2cc(Cl)ccc2O)c1` [compound 167], the “Inhibitory rate … (%)” value amounted to 98.7%. As for `Cc1ccc(S(=O)(=O)c2ccc(Cl)cc2NC(=O)c2cc(Cl)ccc2O)cc1` [compound 168], the “Inhibitory rate … (%)” value is listed as 97.8%. As to `Cc1ccc(S(=O)(=O)c2ccc(Cl)c(NC(=O)c3cc(Cl)ccc3O)c2)cc1` [compound 169], the “Inhibitory rate … (%)” value is 95.9%.

Staying with this experiment, now noted: Homo sapiens; Drug concentration at 1 μg/mL; HepG2, TNF-α 40 ng/ml, 4 hours; read-out: Inhibitory rate against NF-κB activation (%).
As to `COc1ccc(C(C)(C)C)cc1NC(=O)c1cc(Cl)ccc1O` [compound 135, 5-chloro-N-{5-[(1,1-dimethyl)ethyl]-2-methoxyphenyl}-2-hydroxybenzamide], the inhibition at 1 µg/mL came to 86.2%. As for `CC(C)(C)c1cc(NC(=O)c2cc(Cl)ccc2O)cc(C(C)(C)C)c1` [compound 138, N-{3,5-bis[(1,1-dimethyl)ethyl]phenyl}-5-chloro-2-hydroxybenzamide], the inhibition at 1 µg/mL was 89.6%.

Staying with this experiment, now noted: Homo sapiens; Drug concentration at 10 μg/mL; HepG2, TNF-α 40 ng/ml, 4 hours; read-out: Inhibitory rate against NF-κB activation (%).
Take `COc1ccc(C(C)(C)C)cc1NC(=O)c1cc(Cl)ccc1O` [compound 135, 5-chloro-N-{5-[(1,1-dimethyl)ethyl]-2-methoxyphenyl}-2-hydroxybenzamide]: the inhibition at 10 µg/mL was 99.2%. For `CC(C)(C)c1cc(NC(=O)c2cc(Cl)ccc2O)cc(C(C)(C)C)c1` [compound 138, N-{3,5-bis[(1,1-dimethyl)ethyl]phenyl}-5-chloro-2-hydroxybenzamide], the inhibition at 10 µg/mL worked out at 98.1%. As to `COC(=O)c1cc(NC(=O)c2cc(Br)ccc2O)cc(C(=O)OC)c1` [compound 144, 5-bromo-2-hydroxy-N-[3,5-bis(methoxycarbonyl)phenyl]benzamide], the inhibition at 10 µg/mL was found to be 56.4%.
